Assay results published in US20220296595A1, “CDK INHIBITORS” (QILU REGOR THERAPEUTICS INC., priority 2019, published 2022).
Where two headings read alike, the source gives them in different places.

Key:
CDK4/CyclinD1 = biological target: T1, CDK4/CyclinD1 (Homo sapiens, UniProt P11802); experiment: Assay for inhibition of CDK4/CyclinD1 (Caliper microfluidic kinase assay); format: biochemical
T1 construct: purchased Thermofisher PR8064A
Method: The CDK4 enzyme assay for IC50 determination was performed as follows. Microfluidic kinase detection technology (Caliper) was used to monitor the phosphorylation of peptide substrate by CDK4/CyclinD1. The total reaction volume was 15 μL containing buffer A (100 mM HEPES (pH 7.5), 0.1% BSA, 0.01% Triton X-100, 1 mM DTT, 10 mM MgCl2, 10 μM Sodium Orthovanadate, 10 μM Beta-Glycerophosphate), 200 μM ATP, 1 nM CDK4/CyclinD1 (Thermofisher, PR8064A), 1 μM FL-34 (5-FAM-[…]), and the test compound at appropriate dilutions in DMSO. All components were added to the 384-well plate (Corning, 4514), and incubated at Room Temperature for 3 hours. The reaction was terminated by addition of 15 μL Stop Buffer (180 mM HEPES (pH 7.5), 20 mM EDTA, Coating-3 reagent (PerkinElmer, 760050)). The plate was then loaded on Caliper EZ Reader (EZ Reader II, PerkinElmer, HD-4HYSG2772), and the reaction mixtures including substrate and product were sipped into the microfluidic chip for separation and detection. The IC50 values of the test compound were determined by fitting the inhibition curves by 4 parameter sigmoidal dose-response model using the Xlfit5/GraphPad Prism 5 software.

CDK2/CyclinE1 = biological target: T2, CDK2/CyclinE1 (Homo sapiens, UniProt P24941); experiment: Assay for inhibition of CDK2/CyclinE1 (Caliper microfluidic kinase assay); format: biochemical; details: read-out: CDK2 IC50
T2 construct: purchased SignalChem C29-18G
Method: The CDK2 enzyme assay for IC50 determination was performed as follows. Microfluidic kinase detection technology (Caliper) was used to monitor the phosphorylation of peptide substrate by CDK2/CyclinE1. The total reaction volume was 15 μL containing buffer A (100 mM HEPES (pH 7.5), 0.1% BSA, 0.01% Triton X-100, 1 mM DTT, 10 mM MgCl2, 10 μM Sodium Orthovanadate, 10 μM Beta-Glycerophosphate), 100 μM ATP, 5 nM CDK2/CyclinE1 (SignalChem, C29-18G), 5 μM FL-18 (5-FAM-QSPKKG-NH2), and the test compound at appropriate dilutions in DMSO. All components were added to the 384-well plate (Corning, 4514), and incubate at Room Temperature for 3 hours. The reaction was terminated by addition of 15 μL Stop Buffer (180 mM HEPES (pH 7.5), 20 mM EDTA, Coating-3 reagent (PerkinElmer, 760050)). The plate was loaded on Caliper EZ Reader (EZ Reader II, PerkinElmer, HD-4HYSG2772), and the reaction mixtures including substrate and product were sipped into the microfluidic chip for separation and detection. The IC50 values of the test compound were determined by fitting the inhibition curves by 4 parameter sigmoidal dose-response model using the Xlfit5/GraphPad Prism 5 software.

T47D breast cancer cells = experiment: Anti-proliferation assay in T47D cell (Cyquant, day 6); format: cell-based, human; details: anti-proliferation, T47D cells, read-out: T47D IC50
Excerpt: T47D is a human breast cancer cell line commonly used in biomedical research involving the hormonal expression of cancer cells. T47D cells are distinct from other human breast cancer cells in that their progesterone receptors (PR) are not regulated by estradiol, a hormone that is abundant within the cells themselves. T47D cells have been employed in studies of the effects of progesterone on breast cancer and the corresponding transcriptional regulation caused by introduced drugs. The cells have been noted to be extremely resistant to estrogens and antiestrogens.
T47D breast cancer cells from American Type Culture Collection (ATCC, HTB-133) were plated at 3000 cells/well in 96-well plates, and were incubated in RPMI 1640 medium (Gibco, 31800105) with 10% Fetal Bovine Serum (FBS, Biowest, FB-1058) at 37° C., 5% CO2. After overnight incubation, baseline values were measured of the samples from one plate using Cyquant reagent (Invitrogen, C35011) following manufacturer's recommendations. Cells were incubated with the detection reagent for 1 hour at 37° C., and then the fluorescence was measured with excitation at 485 nm and emission at 535 nm using Spectra Max M5 (Molecular Devices, HD-4HYSG3196). Other plates were dosed with compounds at a ten-point dose concentration from 10 μM to 0.51 nM in a 3-fold dilution scheme. On day 6 after compound addition, Cyquant reagent was added and the fluorescence was measured using Spectra Max M5. The IC50 values of the test compound's anti-proliferation activity were determined from the baseline subtracted viability readout curve using Xlfit5/GraphPad Prism 5 software.

T1 sequence (P11802 whole entry): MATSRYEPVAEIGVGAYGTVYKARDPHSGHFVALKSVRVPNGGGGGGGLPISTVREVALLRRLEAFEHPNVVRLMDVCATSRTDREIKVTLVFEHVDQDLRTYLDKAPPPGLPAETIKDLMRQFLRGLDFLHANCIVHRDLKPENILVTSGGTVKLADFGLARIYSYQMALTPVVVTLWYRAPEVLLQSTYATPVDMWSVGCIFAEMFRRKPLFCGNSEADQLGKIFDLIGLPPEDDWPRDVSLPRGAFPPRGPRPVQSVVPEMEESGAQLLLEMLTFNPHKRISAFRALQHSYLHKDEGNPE
T1 sequence (P24385 whole entry partner): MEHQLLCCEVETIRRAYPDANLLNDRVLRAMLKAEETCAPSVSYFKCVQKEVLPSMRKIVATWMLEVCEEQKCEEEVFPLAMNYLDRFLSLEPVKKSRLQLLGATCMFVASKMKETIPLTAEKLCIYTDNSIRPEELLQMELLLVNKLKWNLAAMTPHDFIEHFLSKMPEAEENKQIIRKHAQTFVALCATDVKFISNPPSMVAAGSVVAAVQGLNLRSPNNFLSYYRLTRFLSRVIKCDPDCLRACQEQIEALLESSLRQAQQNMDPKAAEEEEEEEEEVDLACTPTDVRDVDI

SMILES	IC50 (CDK4/CyclinD1; CDK4/CyclinD1, 200 μM ATP)	IC50 (CDK2/CyclinE1; CDK2/CyclinE1, 100 μM ATP)	IC50 (T47D breast cancer cells)	IC50 (T47D breast cancer cells; Homo sapiens, T47D)	IC50 (CDK4/CyclinD1; CDK4/CyclinD1)	IC50 (CDK2/CyclinE1; CDK2/CyclinE1)
CNC1CCN(c2ccc(Nc3nccc(-c4ccn5ncc(C(C)C)c5c4)n3)nc2)C(=O)C1 (single isomer, unassigned) [Synthetic Example 206, 1-[6-[[4-(3-isopropylpyrazolo[1,5-a]pyridin-5-yl)pyrimidin-2-yl]amino]-3-pyridyl]-4-(methylamino)piperidin-2-one]	< 10 nM	< 10 nM	< 100 nM			
Cc1nc2c(F)nc(-c3ccnc(Nc4ccc(N5CCCC(N(C)C)C5=O)cn4)n3)cc2n1C(C)C (single isomer, unassigned) [Synthetic Example 302, 3-(dimethylamino)-1-[6-[[4-(4-fluoro-1-isopropyl-2-methyl-imidazo[4,5-c]pyridin-6-yl)pyrimidin-2-yl]amino]-3-pyridyl]piperidin-2-one]	< 10 nM	> 1000 nM		< 100 nM		
Cc1nc2c(F)nc(-c3ccnc(Nc4ccc(N5CCCC(N(C)C)C5=O)cn4)n3)cc2n1C(C)C (single isomer, unassigned) [Synthetic Example 303, 3-(dimethylamino)-1-[6-[[4-(4-fluoro-1-isopropyl-2-methyl-imidazo[4,5-c]pyridin-6-yl)pyrimidin-2-yl]amino]-3-pyridyl]piperidin-2-one]	< 10 nM	> 1000 nM	< 100 nM			
CC(C)c1cnn2ccc(-c3nc(Nc4ccc(N5CCN(C6CC6)CCC5=O)cn4)ncc3F)cc12 [Synthetic Example 49]	< 10 nM	100 to 1000 nM		100 to 500 nM		
CC(C)c1cnn2ccc(-c3nc(Nc4ccc(S(C)(=O)=O)cc4)ncc3F)cc12 [compound 6]	100 to 1000 nM	10 to 100 nM		500 to 1000 nM		
O=C1COCCN1c1ccc(Nc2ncc(F)c(-c3ccn4ncc(C5CCCC5)c4c3)n2)nc1 [compound 12]	10 to 100 nM	100 to 1000 nM		500 to 1000 nM		
CCN1CC(=O)N(c2ccc(Nc3ncc(F)c(-c4ccn5ncc(C(C)C)c5c4)n3)nc2)CC1=O [compound 14]	10 to 100 nM	10 to 100 nM		< 100 nM		
CC(C)c1cnn2ccc(-c3ccnc(Nc4ccc(C(=O)N5CCC(NC6CC6)C5)cc4)n3)cc12 (stereo not shown) [compound 21]	< 10 nM	< 10 nM	< 100 nM			
CC(C)c1cnn2ccc(-c3nc(Nc4ccc(N5CCN(CCF)CCC5=O)cn4)ncc3F)cc12 [compound 54]	< 10 nM	10 to 100 nM		100 to 500 nM		
CC(C)n1cnc2c(OC(F)F)nc(-c3ccnc(Nc4ccc(N5CCC(N(C)C)CC5=O)cn4)n3)cc21 (stereo not shown) [compound 64]				100 to 500 nM	< 10 nM	> 1000 nM
CCN1CCC(Cn2ccc(Nc3nccc(-c4cc5c(ncn5C(C)C)c(OC)n4)n3)n2)CC1 [compound 135]	10 to 100 nM	> 1000 nM		100 to 500 nM		
CC(C)c1cnn2ccc(-c3ccnc(Nc4ccc(N5CCC(N(C)C)C5=O)cc4)n3)cc12 (stereo not shown) [compound 144]	< 10 nM	< 10 nM		< 100 nM		
CC(C)c1cnn2ccc(-c3ccnc(Nc4ccc(N5CCC(N(C)CCF)CC5=O)cn4)n3)cc12 (stereo not shown) [compound 170]	< 10 nM	10 to 100 nM		< 100 nM		
CC(C)c1cnn2ccc(-c3ccnc(Nc4ccc(N5CCCC(N(C)C)C5=O)cc4)n3)cc12 (stereo not shown) [compound 174]	< 10 nM	100 to 1000 nM		100 to 500 nM		
Cc1nn2ccc(-c3ccnc(Nc4ccc(N5CCCC(N(C)C)C5=O)cc4)n3)cc2c1C(C)C (stereo not shown) [compound 178]	< 10 nM	100 to 1000 nM		< 100 nM		
CNC1CCCN(c2ccc(Nc3nccc(-c4ccn5ncc(C(C)C)c5c4)n3)cn2)C1=O (stereo not shown) [compound 185]	< 10 nM	10 to 100 nM		< 100 nM		
CC(C)c1cnn2ccc(-c3ccnc(Nc4ccc(N5CCC(NCCF)CC5=O)cn4)n3)cc12 (stereo not shown) [compound 201]	< 10 nM	< 10 nM		< 100 nM		
CNC1CCCN(c2ccc(Nc3nccc(-c4ccn5ncc(C(C)C)c5c4)n3)nc2)C1=O (stereo not shown) [compound 208]	< 10 nM	100 to 1000 nM		< 100 nM		
CC(C)c1cnn2ccc(-c3ccnc(Nc4ccc(N5C(=O)C6CC5CN6)cn4)n3)cc12 (stereo not shown) [compound 210]	< 10 nM	10 to 100 nM		> 1000 nM		
CC(C)(C)c1cnn2ccc(-c3ccnc(Nc4ccc(N5C(=O)C6CC5CN6)cn4)n3)cc12 (stereo not shown) [compound 211]	< 10 nM	< 10 nM		500 to 1000 nM		
Cc1nn2ccc(-c3ccnc(Nc4ccc(N5CCCC(N)C5=O)cc4)n3)cc2c1C(C)C (stereo not shown) [compound 216]	< 10 nM	10 to 100 nM		< 100 nM		
CC1(N)CCN(c2ccc(Nc3nccc(-c4ccn5ncc(C(C)(C)C)c5c4)n3)nc2)C(=O)C1 (stereo not shown) [compound 219]	< 10 nM	< 10 nM		< 100 nM		
CC(C)(C)c1cnn2ccc(-c3ccnc(Nc4ccc(N5CCCC(N)C5=O)cn4)n3)cc12 (stereo not shown) [compound 220]	< 10 nM	10 to 100 nM		< 100 nM		
CNC1CCCN(c2ccc(Nc3nccc(-c4ccn5ncc(C(C)(C)C)c5c4)n3)nc2)C1=O (stereo not shown) [compound 221]	< 10 nM	> 1000 nM		< 100 nM		
CC(C)n1cnc2c1CN(c1nc(Nc3ccc(N4CCNCC4=O)cn3)ncc1F)CC2 [compound 238]	< 10 nM	10 to 100 nM		100 to 500 nM		
CC(C)n1cnc2c1CN(c1nc(Nc3ccc(N4CCOCC4=O)cn3)ncc1F)CC2 [compound 239]	< 10 nM	10 to 100 nM		100 to 500 nM		
CC(C)n1cnc2c(F)nc(-c3ccnc(Nc4ccc(N5CCC(N(C)C)CC5=O)cc4F)n3)cc21 (stereo not shown) [compound 305]	< 10 nM	< 10 nM				
CC(C)n1cnc2c(F)nc(-c3ccnc(NC4CCN(S(C)(=O)=O)CC4)n3)cc21 [compound 310]	10 to 100 nM	10 to 100 nM				
